For orientation: half-life means the time in which the quantity being followed falls by half. High values mean slow decline, low ones rapid decline. By Kd is commonly meant the constant that tells how readily two partners part at equilibrium. For orientation: IC50 means the concentration at which inhibition is half-maximal. For orientation: bioavailability means dose-corrected exposure relative to a reference, in per cent. The low end stands for little systemic uptake, the high end for much systemic uptake.

The test system of data set [1] is MV4-11. As to the kind of experiment: Induction of cell cycle arrest in human MV4-11 cells assessed as reduction in accumulation of cells at S phase at 0.01 to 1 uM incubated for 48 hrs. It counts as functional, cell-based. Conditions: dose 0.01-1 µM.
Data set [2] in a line: Volume of distribution in CD-1 mouse at 5 mg/kg, po or 1 mg/kg, iv administered as single dose and measured for 24 hrs by LC-MS/MS analysis. The class given is ADME, organism-based. Conditions: in vivo.
The nature of data set [3]: Clearance in Sprague-Dawley rat assessed as liver blood flow at 5 mg/kg, po or 1 mg/kg, iv administered as single dose and measured for 24 hrs by LC-MS/MS analysis. It counts as ADME, organism-based. Conditions: in vivo.
Data set [4] in a line: Metabolic stability in human liver microsomes assessed as intrinsic clearance at 1 uM preincubated for 10 mins followed by NADPH addition and measured for 60 mins by LC-MS/MS analysis. It counts as ADME, Microsome. Conditions: read-out: CLH.
Data set [5] is described as follows: Half life in Sprague-Dawley rat at 5 mg/kg, po or 1 mg/kg, iv administered as single dose and measured for 24 hrs by LC-MS/MS analysis. Conditions: in vivo. It counts as ADME, organism-based.
For data set [6], the target named is T1, Serine/threonine-protein kinase LATS2 (Homo sapiens, UniProt Q9NRM7).
T1 sequence (Q9NRM7 whole entry): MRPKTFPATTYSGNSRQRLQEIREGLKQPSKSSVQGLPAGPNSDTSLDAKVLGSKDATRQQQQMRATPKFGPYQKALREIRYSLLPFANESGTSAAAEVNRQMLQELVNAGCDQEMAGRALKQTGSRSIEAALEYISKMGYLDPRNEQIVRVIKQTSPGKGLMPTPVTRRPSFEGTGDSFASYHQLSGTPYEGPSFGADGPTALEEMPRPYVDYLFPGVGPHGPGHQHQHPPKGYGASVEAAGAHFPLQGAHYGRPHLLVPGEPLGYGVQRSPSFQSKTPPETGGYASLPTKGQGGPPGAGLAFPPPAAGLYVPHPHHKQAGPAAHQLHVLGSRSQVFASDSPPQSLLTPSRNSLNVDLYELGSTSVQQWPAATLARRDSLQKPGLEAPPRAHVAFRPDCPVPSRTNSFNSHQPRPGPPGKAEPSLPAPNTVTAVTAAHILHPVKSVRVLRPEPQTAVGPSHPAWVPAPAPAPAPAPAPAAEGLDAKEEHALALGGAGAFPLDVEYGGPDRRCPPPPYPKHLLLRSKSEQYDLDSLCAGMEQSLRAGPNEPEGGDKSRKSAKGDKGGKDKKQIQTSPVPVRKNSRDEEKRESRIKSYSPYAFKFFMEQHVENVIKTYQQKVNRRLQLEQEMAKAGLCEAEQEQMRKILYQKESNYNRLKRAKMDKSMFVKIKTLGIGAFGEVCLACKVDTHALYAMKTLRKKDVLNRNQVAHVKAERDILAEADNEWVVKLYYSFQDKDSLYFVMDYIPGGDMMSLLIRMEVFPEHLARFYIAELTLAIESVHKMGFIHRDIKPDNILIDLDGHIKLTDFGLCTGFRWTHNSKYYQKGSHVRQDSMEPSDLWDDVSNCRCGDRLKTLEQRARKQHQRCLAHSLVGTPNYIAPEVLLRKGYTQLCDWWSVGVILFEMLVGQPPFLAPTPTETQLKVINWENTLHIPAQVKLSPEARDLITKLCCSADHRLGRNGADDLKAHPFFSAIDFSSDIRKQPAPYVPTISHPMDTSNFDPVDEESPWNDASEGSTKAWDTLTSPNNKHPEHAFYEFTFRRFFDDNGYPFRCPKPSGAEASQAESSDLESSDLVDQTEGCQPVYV
As to the kind of experiment: Binding affinity to LATS2 (unknown origin) assessed as dissociation constant by competitive binding assay.

A short description of data set [7]: Volume of distribution in Sprague-Dawley rat at 5 mg/kg, po or 1 mg/kg, iv administered as single dose and measured for 24 hrs by LC-MS/MS analysis. The class given is ADME, organism-based. Conditions: in vivo.
A short description of data set [8]: Clearance in CD-1 mouse assessed as liver blood flow at 5 mg/kg, po or 1 mg/kg, iv administered as single dose and measured for 24 hrs by LC-MS/MS analysis. It counts as ADME, organism-based. Conditions: in vivo.
Data set [9] can be described thus: Metabolic stability in rat liver microsomes assessed as intrinsic clearance at 1 uM preincubated for 10 mins followed by NADPH addition and measured for 60 mins by LC-MS/MS analysis. The class given is ADME, Microsome. Conditions: read-out: CLH. For orientation: Liver microsomes are a subcellular fraction often used to study metabolism.
For another data set, the system named is MC-38. Put plainly: Antitumor activity against mouse MC-38 cells implanted in C57BL/6J syngeneic mouse model assessed as tumor growth inhibition at 3 mg/kg, po administered via gavage once daily for 21 days in presence of mPDL1 antibody administered twice per week and measured 3 times a week by caliper method relative to control. It counts as functional. Conditions: MC-38, 504 h, time 21 day, read-out: TGI.

Data set [10] has as its system MV4-11. Put plainly: Antitumor activity against human MV4-11 cells xenografted in BALB/c nude mouse assessed as tumor growth inhibition at 3 mg/kg, po bid administered by gavage for 17 days and measured 3 times per week by caliper method relative to control. It counts as functional. Conditions: MV4-11, 408 h, time 17 day, read-out: TGI. Background: In xenograft studies the graft and the host belong to different species.

A further data set addresses T2, Cytochrome P450 1A2 (Homo sapiens, UniProt P05177).
T2 sequence (P05177 whole entry): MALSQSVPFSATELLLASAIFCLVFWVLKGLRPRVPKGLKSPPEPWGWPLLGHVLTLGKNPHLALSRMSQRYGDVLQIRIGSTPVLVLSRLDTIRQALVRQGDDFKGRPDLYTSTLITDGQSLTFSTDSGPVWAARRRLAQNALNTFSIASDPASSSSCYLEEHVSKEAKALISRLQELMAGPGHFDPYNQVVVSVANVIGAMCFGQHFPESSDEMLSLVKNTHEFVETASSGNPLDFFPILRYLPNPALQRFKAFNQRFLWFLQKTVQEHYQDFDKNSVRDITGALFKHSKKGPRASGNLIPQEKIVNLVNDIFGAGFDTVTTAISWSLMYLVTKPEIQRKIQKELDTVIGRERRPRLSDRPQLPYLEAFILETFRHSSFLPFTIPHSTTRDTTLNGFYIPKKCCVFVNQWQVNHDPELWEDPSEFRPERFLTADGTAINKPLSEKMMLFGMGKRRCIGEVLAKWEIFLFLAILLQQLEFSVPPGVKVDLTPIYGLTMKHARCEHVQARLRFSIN
As to the kind of experiment: Inhibition of CYP1A2 in human liver microsomes using phenacetin as substrate assessed as reduction in substrate O-deethylation incubated for 10 mins in presence of NADPH by LC-MS/MS analysis. The class given is ADME, Microsome.

The test system of data set [11] is MV4-11. As to the kind of experiment: Induction of cell cycle arrest in human MV4-11 cells assessed as reduction in accumulation of cells at G2/M phase at 0.01 to 1 uM incubated for 48 hrs. The class given is functional, cell-based. Conditions: dose 0.01-1 µM.
Data set [12] is described as follows: Bioavailability in CD-1 mouse at 5 mg/kg, po or 1 mg/kg, iv administered as single dose and measured for 24 hrs by LC-MS/MS analysis. The class given is ADME, organism-based. Conditions: in vivo.

Calls of active or inactive are those of the source. No cut-off for these calls is given here. Bounds are passed on as bounds.

In the case of `Cc1n[nH]c2ccc(-c3nnc(C)n3Cc3ccc(C(F)(F)F)cc3)cc12`, the result with MV4-11 [1] and in the data set on MV4-11 [11] was Active. Moreover, the figures for the Vd in [2] and in data set [7] were 0.4 L/kg and 1.2 L/kg, respectively. In addition, the results for the LBF in [3] and in data set [8] were 27% and 1.4%, respectively. For the same molecule, the CLint scaled at 1 µM was less than 8.6 mL/min/kg in data set [4] and 29.9 mL/min/kg in [9]. Besides, the half-life in [5] is 234 min. Also, in [6], the equilibrium dissociation constant (Kd) came to 250 nM. Further, the inhibition in vivo at 3 mg/kg in the data set on MC-38 turned out to be 80.4%; in the data set on MV4-11 [10], 84.8%. Further, the IC50 on Cytochrome P450 1A2 is greater than 50 µM. The bioavailability in data set [12] is 87.4%.

The record behind these values is ChEMBL document CHEMBL5380857, “Discovery of Potent, Selective, and Orally Bioavailable Small-Molecule Inhibitors of CDK8 for the Treatment of Cancer” (J Med Chem, 2023).
